Data taken from article PMC12956279 (2026).

Experiments:
Assay in all cases: fluorescence titration (light-up), quadratic fit
Details in all cases: 100 mM KCl, 1 mM MgCl2; 40 mM HEPES pH 7.4 (7.5 in Results), room temperature; 1 µM dye, DNA varied
[1] = system: 11LE (11LE-v4) (DNA, aptamer) TCCTTCGCACAGCACACCTGCCGTATAGCTCTGAATCAAGGATTTTAGGGAGGCGATGGTGTCTTAGTAGGGATGATGCGGCAGTGGGCTTCGCAGAACAGTGTTTATTCTGCGAGGGGACTAAGACTCCTCCTCCTGCC
[2] = system: FLE (FLE-v4) (DNA, aptamer) TCCTTCGCACAGCACACCTGCCGTATAGCTCTGAATCAAGGATTTTAGGGAGGCGATAACGTGCTCAAGGTGTCTTAGTAGGGATGATGCGGCAGTGGGCTTCGCAGAACAGTGTTTATTCTGCGAGGGGACTAAGACTCCTTCAGCAAGTTAAGCTCCTCCTGCC
[3] = system: 8LE-v4 (DNA, aptamer) TCCTTCGCACAGCACACCTGCCGTATAGCTCTGAATCAAGGATTTTAGGGAGGCGATGTCTTAGTAGGGATGATGCGGCAGTGGGCTTCGCAGAACAGTGTTTATTCTGCGAGGGGACTAAGACTCCTCCTGCC
[4] = system: 4LE-v4 (DNA, aptamer) TCCTTCGCACAGCACACCTGCCGTATAGCTCTGAATCAAGGATTTTAGGGAGGCGATTAGTAGGGATGATGCGGCAGTGGGCTTCGCAGAACAGTGTTTATTCTGCGAGGGGACTATCCTCCTGCC

`CC1=N/C(=C\c2cc(F)c(O)c(F)c2)C(=O)N1CC(F)(F)F` was tested, and the KD [1] was 0.01 (0.01, 0.07, 95% CI) µM, the KD [2] was 0.07 (0.01, 0.16, 95% CI) µM and the KD [3] was 0.04 (0.01, 0.12, 95% CI) µM. For the same compound, the KD [4] was 6 (4.93, 7.18, 95% CI) µM.
